The results in this text go back to patent US20040043959A1, “Combination therapies for treating methylthioadenosine phosphorylase deficient cells” (priority 2002, published 2004).

The test deals with T1, Human MTAP (Homo sapiens, UniProt Q13126).
T1 construct: six-histidine tag (His6) (N); made in house; host or cells: E. coli BL21 DE3
T1 sequence (Q13126 1-283): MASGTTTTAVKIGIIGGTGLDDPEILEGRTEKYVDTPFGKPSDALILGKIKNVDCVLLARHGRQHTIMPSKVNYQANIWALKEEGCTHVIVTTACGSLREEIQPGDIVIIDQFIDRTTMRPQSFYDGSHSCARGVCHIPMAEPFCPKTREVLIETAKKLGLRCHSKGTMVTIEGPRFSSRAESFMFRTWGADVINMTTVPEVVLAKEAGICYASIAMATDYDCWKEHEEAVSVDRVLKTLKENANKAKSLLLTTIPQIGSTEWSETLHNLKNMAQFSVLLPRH
Put plainly: MTAP substrate assay, coupled spectrophotometric (adenine, xanthine oxidase). The conditions noted are these: 2 nM MTAP; for activity at 50 µM: 10 min, compound 50 uM, relative to MTA at 50 uM, read-out: MT-A—50: initial velocity as a percentage of the initial velocity with MTA as substrate; for MT-A—10: initial velocity as a percentage of the initial velocity with MTA as substrate: compound 10 uM, relative to MTA at 10 uM. The class given is biochemical. How it is done:
An enzymatic assay to determine the activity of MTAP against a given substrate was performed. Human MTAP containing an N-terminal six-histidine tag was expressed in E. coli BL21 DE3 cells. The protein was purified to homogeneity by Ni2+ affinity chromatography. Enzymatic activity was measured using a coupled spectrophotometric assay designed to monitor the reaction product adenine (Savarese, T. M., Crabtree, G. W., and Parks, R. E. Jr., (1980) Biochem. Pharmacol. 30, 189-199). Various concentrations of the indicated 5′-deoxymethylthio adenosine (MTA) or substrate were incubated in assay buffer (40 mM potassium phosphate buffer, 1 mM, and DTT 0.8 units/ml xanthine oxidase coupling enzyme) for 5 minutes at 37° C. The reaction was initiated by the addition of MTAP. The exact concentration of enzyme used varied for each substrate tested and ranged from 2 nM to 500 nM. Activity as a function of enzyme concentration was determined for each substrate tested to ensure that the appropriate enzyme concentration was used. Activity was detected by continuous monitoring of absorbance at 305 nm for 10 minutes (ΔE=15,500 M^−1).
Library compounds (10 and 50 uM) were tested using the assay described above with 2 nM MTAP enzyme. The resultant initial velocities are reported as a percentage of the initial velocity observed when MTA is the substrate. MTA controls, 10 and 50 uM concentrations, were run on each plate alongside the library compounds.

Turning to `Cc1nccnc1SC[C@H]1O[C@@H](n2cnc3c(N)ncnc32)[C@H](O)[C@@H]1O` [2(G)(100), (2R, 3R, 4S, 5S)-2-(6-amino-9H-purin-9-yl)-5-{[(3-methylpyrazin-2-yl)thio]methyl}tetrahydro-furan-3,4-diol], the activity at 50 µM worked out at 10% and the “MT-A—10: initial velocity as a percentage of the initial velocity with MTA as substrate” value came out at 7%.
For `Nc1ncnc2c1ncn2[C@@H]1O[C@H](CSc2ccc(F)cc2)[C@@H](O)[C@H]1O` [2(G)(23), (2R, 3R, 4S, 5S)-2-(6-amino-9H-purin-9-yl)-5-{[(4-fluorophenyl)-thio]methyl}tetra-hydrafuran-3,4-diol], in that order: 31% and 21%.
For `Cc1csc(SC[C@H]2O[C@@H](n3cnc4c(N)ncnc43)[C@H](O)[C@@H]2O)n1` [2(G)(79), (2R, 3R, 4S, 5S)-2-(6-amino-9H-purin-9-yl)-5-{[(4-methyl-1,3-thiozol-2-yl)thio]methyl}tetrahydrofuran-3,4-diol], in that order: 45% and 38%.
For `Nc1cccnc1SC[C@H]1O[C@@H](n2cnc3c(N)ncnc32)[C@H](O)[C@@H]1O` [2(G)(59), (2R, 3R, 4S, 5S)-2-(6-amino-9H-purin-9-yl)-5-{[(3-aminopyridin-2-yl)thio]methyl}tetra-hydrofuran-3,4-diol], in that order: 47% and 18%.
Regarding `CC(C)(C)OC(=O)NCCSC[C@H]1O[C@@H](n2cnc3c(N)ncnc32)[C@H](O)[C@@H]1O` [2(G)(39), tert-butyl [2-({[(2S, 3S, 4R, 5R)-5-(6-amino-9H-purin-9-yl)-3,4-dihydroxytetrahydro-furan-2-yl]methyl}thio)-ethyl]carbamate], the activity at 50 µM is 8% and the “MT-A—10: initial velocity as a percentage of the initial velocity with MTA as substrate” value was found to be 7%.
For `Nc1ncnc2c1ncn2[C@@H]1O[C@H](CSc2cccc(F)c2)[C@@H](O)[C@H]1O` [2(G)(147), (2R, 3R, 4S, 5S)-2-(6-amino-9H-purin-9-yl)-5-{[(3-fluorophenyl)-thio]methyl}tetrahydro-furan-3,4-diol], in that order: 25.5% and 18.5%.
On the same counts, the results for `NC(=O)c1cccnc1SC[C@H]1O[C@@H](n2cnc3c(N)ncnc32)[C@H](O)[C@@H]1O` [2(G)(60), 2-({[(2S, 3S, 4R, 5R)-5-(6-amino-9H-purin-9-yl)-3,4-dihydroxytetrahydro-furan-2-yl]methyl}thio)-nicotinamide] are 8% and 4%.
Turning to `Cc1cccc2[nH]c(SC[C@H]3O[C@@H](n4cnc5c(N)ncnc54)[C@H](O)[C@@H]3O)nc12` [2(G)(46), (2R, 3R, 4S, 5S)-2-(6-amino-9H-purin-9-yl)-5-{[(4-methyl-1H-benzimidazol-2-yl)-thio]methyl}tetrahydro-furan-3,4-diol], the activity at 50 µM came to 45% and the “MT-A—10: initial velocity as a percentage of the initial velocity with MTA as substrate” value was found to be 42%.
For `CCOC(=O)c1cnc(SC[C@H]2O[C@@H](n3cnc4c(N)ncnc43)[C@H](O)[C@@H]2O)nc1N` [2(G)(36)], in that order: 40% and 35%.
For `Nc1ncnc2c1ncn2[C@@H]1O[C@H](CSc2nccc(-c3ccco3)n2)[C@@H](O)[C@H]1O` [2(G)(112), (2R, 3R, 4S, 5S)-2-(6-amino-9H-purin-9-yl)-5-({[4-(2-furyl)pyrimidin-2-yl]thio}methyl)tetrahydro-furan-3,4-diol], the activity at 50 µM came to 10% and the “MT-A—10: initial velocity as a percentage of the initial velocity with MTA as substrate” value is given as 17%.
As to `Nc1ncnc2c1ncn2[C@@H]1O[C@H](CSc2nc3cnccc3[nH]2)[C@@H](O)[C@H]1O` [2(G)(47), (2R, 3R, 4S, 5S)-2-(6-amino-9H-purin-9-yl)-5-[(1H-imidazo[4,5-c]-pyridin-2-ylthio)methyl]-tetrahydrofuran-3,4-diol], the activity at 50 µM came out at 50% and the “MT-A—10: initial velocity as a percentage of the initial velocity with MTA as substrate” value turned out to be 49%.
Take `Cc1cc(C)c(C#N)c(SC[C@H]2O[C@@H](n3cnc4c(N)ncnc43)[C@H](O)[C@@H]2O)n1` [2(G)(43), 2-({[(2S, 3S, 4R, 5R)-5-(6-amino-9H-purin-9-yl)-dihydroxytetrahydro-furan-2-yl]methyl}thio)-4,6-dimethylnicotino-nitrile]: the activity at 50 µM came out at 7% and the “MT-A—10: initial velocity as a percentage of the initial velocity with MTA as substrate” value is listed as 5%.
For `Cc1nnc(SC[C@H]2O[C@@H](n3cnc4c(N)ncnc43)[C@H](O)[C@@H]2O)s1` [2(G)(52), (2R, 3R, 4S, 5S)-2-(6-amino-9H-purin-9-yl)-5-{[(5-methyl-1,3,4-thiadiazol-2-yl)thio]methyl}tetrahydro-furan-3,4-diol], in that order: 23% and 19%.
As for `Nc1ncnc2c1ncn2[C@@H]1O[C@H](CSCCCCO)[C@@H](O)[C@H]1O` [2(G)(57)], the activity at 50 µM was 45% and the “MT-A—10: initial velocity as a percentage of the initial velocity with MTA as substrate” value was found to be 31%.
For `Nc1ncnc2c1ncn2[C@@H]1O[C@H](CSc2cc(Cl)ccc2Cl)[C@@H](O)[C@H]1O` [2(G)(97), (2R, 3R, 4S, 5S)-2-(6-amino-9H-purin-9-yl)-5-{[(2,5-dichlorophenyl)-thio]methyl}tetrahydro-furan-3,4-diol], in that order: 6% and 5%.
On the same counts, the results for `COc1ccc(SC[C@H]2O[C@@H](n3cnc4c(N)ncnc43)[C@H](O)[C@@H]2O)cc1OC` [2(G)(25), (2R, 3R, 4S, 5S)-2-(6-amino-9H-purin-9-yl)-5-{[(3,4-dimethoxyphenyl)-thio]methyl}tetrahydro-furan-3,4-diol] are 30% and 5%.
Take `COC(=O)CCSC[C@H]1O[C@@H](n2cnc3c(N)ncnc32)[C@H](O)[C@@H]1O` [2(G)(92), methyl 3-({[(2S, 3S, 4R, 5R)-5-(6-amino-9H-purin-9-yl)-dihydroxytetra-hydrofuran-2-yl]-methyl}thio)propanoate]: the activity at 50 µM is 36% and the “MT-A—10: initial velocity as a percentage of the initial velocity with MTA as substrate” value was 27%.
As for `Cc1nnc(SC[C@H]2O[C@@H](n3cnc4c(N)ncnc43)[C@H](O)[C@@H]2O)n1C` [2(G)(67), (2R, 3R, 4S, 5S)-2-(6-amino-9H-purin-9-yl)-5-{[(4,5-dimethyl-4H-1,2,4-triazol-3-yl)thio]methyl}tetra-hydrofuran-3,4-diol], the activity at 50 µM came out at 47% and the “MT-A—10: initial velocity as a percentage of the initial velocity with MTA as substrate” value was found to be 45%.
For `CCCCOC(=O)CCSC[C@H]1O[C@@H](n2cnc3c(N)ncnc32)[C@H](O)[C@@H]1O` [2(G)(139), Butyl 3-({[(2S, 3S, 4R, 5R)-5-(6-amino-9H-purin-9-yl)-dihydroxytetrahydro-furan-2-yl]methyl}thio)-propanoate], the activity at 50 µM is 30% and the “MT-A—10: initial velocity as a percentage of the initial velocity with MTA as substrate” value is 26.5%.
For `CCc1ccc(SC[C@H]2O[C@@H](n3cnc4c(N)ncnc43)[C@H](O)[C@@H]2O)cc1` [2(G)(80)], in that order: 15% and 13%.
On the same counts, the results for `Nc1ncnc2c1ncn2[C@@H]1O[C@H](CSCc2cccc(C(F)(F)F)c2)[C@@H](O)[C@H]1O` [2(G)(74)] are 22% and 23%.
On the same counts, the results for `CC(=O)NCCSC[C@H]1O[C@@H](n2cnc3c(N)ncnc32)[C@H](O)[C@@H]1O` [2(G)(114), N-[2-({[(2S, 3S, 4R, 5R)-5-(6-amino-9H-purin-9-yl)-3,4-dihydroxytetra-hydrofuran-2-yl]methyl}thio)ethyl]acetamide] are 11% and 29%.
For `Nc1ncnc2c1ncn2[C@@H]1O[C@H](CSc2cccc(O)c2)[C@@H](O)[C@H]1O` [2(G)(101), (2R, 3R, 4S, 5S)-2-(6-amino-9H-purin-9-yl)-5-{[(3-hydroxyphenyl)-thio]methyl}tetrahydro-furan-3,4-diol], the activity at 50 µM was 38% and the “MT-A—10: initial velocity as a percentage of the initial velocity with MTA as substrate” value was 36%.
